T/C data for five compounds are collected here from PubChem BioAssay AID344 (DTP/NCI, 2004).

Where “and” joins values, the source holds several entries; their conditions need not be identical. Identical values can stand only once. Inconclusive results and toxic doses are left out.

For the test, the system named is mice, LPC-1 plasma cell tumor ip, median survival T/C. As to the kind of experiment: NCI In Vivo Anticancer Drug Screen. Data for tumor model Lieberman Plasma Cell No. 1 (LPC-1) (intraperitoneal) in unknown mice. Particulars: endpoint: median survival time, higher = longer survival. On the procedure: The antitumor activity of compounds was measured in mice bearing transplantable tumors. Survival or tumor size were measured and the results are expressed as the measurement made in the treated group (T) divided by the measurement made in the vehicle treated control group (C). The tumor model used in this assay is Lieberman Plasma Cell No. 1 (LPC-1) (intraperitoneal) in unknown mice

Consider `CS(=O)(=O)OCCN(CCOS(C)(=O)=O)c1ccc(/C=N/Nc2ncnc3nc[nH]c23)cc1`, for which the T/C is 111 % of control (dose: 5.0 mg/kg/injection, schedule: Q03HX056 (sc), vehicle: other); 186 % of control (dose: 8.0 mg/kg/injection, schedule: Q01DX028 (sc), vehicle: carboxymethylcellulose (CMC)); 100 % of control (dose: 10.0 mg/kg/injection, schedule: Q03HX008 (sc), vehicle: other); 116 % of control (dose: 10.0 mg/kg/injection, schedule: Q03HX056 (sc), vehicle: other); 102 % of control (dose: 20.0 mg/kg/injection, schedule: Q03HX008 (sc), vehicle: other); 150 % of control (dose: 20.0 mg/kg/injection, schedule: Q03HX056 (sc), vehicle: other). Further, the T/C (dose: 36.0 mg/kg/injection, schedule: Q01DX028 (sc), vehicle: carboxymethylcellulose (CMC)) was 171 % of control; the T/C (dose: 40.0 mg/kg/injection, schedule: Q03HX008 (sc), vehicle: other) is 116 % of control; the T/C (dose: 55.0 mg/kg/injection, schedule: Q01DX028 (sc), vehicle: carboxymethylcellulose (CMC)) is 210 % of control; the T/C (dose: 79.0 mg/kg/injection, schedule: Q01DX028 (sc), vehicle: other) is 158 % of control; the T/C (dose: 80.0 mg/kg/injection, schedule: Q01DX001 (sc), vehicle: other) was 94 % of control; the T/C (dose: 80.0 mg/kg/injection, schedule: Q01DX028 (ip), vehicle: other) was 177 % of control. Moreover, the T/C was 218 % of control and 102 % of control (dose: 80.0 mg/kg/injection, schedule: Q01DX028 (sc), vehicle: carboxymethylcellulose (CMC)); 111 % of control (dose: 80.0 mg/kg/injection, schedule: Q03DX004 (sc), vehicle: other); 108 % of control (dose: 80.0 mg/kg/injection, schedule: Q03HX008 (sc), vehicle: other); 210 % of control (dose: 119.0 mg/kg/injection, schedule: Q01DX028 (sc), vehicle: other); 166 % of control (dose: 120.0 mg/kg/injection, schedule: Q01DX028 (ip), vehicle: other); 122 % of control (dose: 120.0 mg/kg/injection, schedule: Q01DX028 (oral), vehicle: other). In addition, the T/C by setting is: (dose: 120.0 mg/kg/injection, schedule: Q01DX028 (sc), vehicle: carboxymethylcellulose (CMC)) 175 % of control and 252 % of control; (dose: 120.0 mg/kg/injection, schedule: Q01DX028 (sc), vehicle: other) 189 % of control; (dose: 120.0 mg/kg/injection, schedule: Q03DX004 (sc), vehicle: other) 116 % of control; (dose: 160.0 mg/kg/injection, schedule: Q01DX001 (sc), vehicle: other) 97 % of control; (dose: 179.0 mg/kg/injection, schedule: Q01DX028 (sc), vehicle: other) 187 % of control; (dose: 180.0 mg/kg/injection, schedule: Q01DX028 (ip), vehicle: other) 111 % of control. Moreover, the T/C by setting is: (dose: 180.0 mg/kg/injection, schedule: Q01DX028 (sc), vehicle: carboxymethylcellulose (CMC)) 164 % of control and 238 % of control; (dose: 180.0 mg/kg/injection, schedule: Q01DX028 (sc), vehicle: other) 166 % of control; (dose: 180.0 mg/kg/injection, schedule: Q03DX004 (sc), vehicle: other) 116 % of control; (dose: 269.0 mg/kg/injection, schedule: Q01DX028 (sc), vehicle: other) 166 % of control; (dose: 270.0 mg/kg/injection, schedule: Q01DX028 (ip), vehicle: other) 122 % of control; (dose: 270.0 mg/kg/injection, schedule: Q01DX028 (oral), vehicle: other) 119 % of control. In addition, the T/C is, setting by setting: (dose: 270.0 mg/kg/injection, schedule: Q01DX028 (sc), vehicle: carboxymethylcellulose (CMC)) 202 % of control; (dose: 270.0 mg/kg/injection, schedule: Q03DX004 (sc), vehicle: other) 116 % of control; (dose: 320.0 mg/kg/injection, schedule: Q01DX001 (sc), vehicle: other) 105 % of control; (dose: 640.0 mg/kg/injection, schedule: Q01DX001 (sc), vehicle: other) 105 % of control.
Regarding `CCN(CC)CCNc1ccc(C)c2sc3ccccc3c(=O)c12` (tested in a mixture with another compound), the T/C (dose: 48.0 mg/kg/injection, schedule: Q01DX028 (sc), vehicle: saline) was 221 % of control; the T/C (dose: 69.0 mg/kg/injection, schedule: Q01DX028 (sc), vehicle: saline) is 231 % of control; the T/C (dose: 98.0 mg/kg/injection, schedule: Q01DX028 (sc), vehicle: saline) is 165 % of control; the T/C (dose: 140.0 mg/kg/injection, schedule: Q01DX028 (sc), vehicle: saline) is 173 % of control.
Regarding `COC1=C(N)C(=O)c2nc(-c3nc(C(=O)O)c(C)c(-c4ccc(OC)c(OC)c4O)c3N)ccc2C1=O`, the T/C is 100 % of control (dose: 0.14 mg/kg/injection, schedule: Q01DX028 (sc), vehicle: other); 113 % of control (dose: 0.23 mg/kg/injection, schedule: Q01DX028 (sc), vehicle: other); 115 % of control (dose: 0.39 mg/kg/injection, schedule: Q01DX028 (sc), vehicle: other); 115 % of control (dose: 0.65 mg/kg/injection, schedule: Q01DX028 (sc), vehicle: other); 94 % of control (dose: 1.08 mg/kg/injection, schedule: Q01DX028 (sc), vehicle: other); 100 % of control (dose: 1.8 mg/kg/injection, schedule: Q01DX028 (sc), vehicle: other).
On to `CCOC(=O)c1c[nH]c2ccc(N(CCCl)CCCl)cc12`, for which the T/C was 112 % of control (dose: 23.0 mg/kg/injection, schedule: Q01DX028 (sc), vehicle: carboxymethylcellulose (CMC)); 110 % of control (dose: 39.0 mg/kg/injection, schedule: Q01DX028 (sc), vehicle: carboxymethylcellulose (CMC)); 89 % of control (dose: 65.0 mg/kg/injection, schedule: Q01DX028 (sc), vehicle: carboxymethylcellulose (CMC)); 97 % of control (dose: 108.0 mg/kg/injection, schedule: Q01DX015 (sc), vehicle: carboxymethylcellulose (CMC)); 87 % of control (dose: 108.0 mg/kg/injection, schedule: Q01DX028 (sc), vehicle: carboxymethylcellulose (CMC)).
`CO[C@H](C(=O)[C@@H](O)[C@@H](C)O)[C@@H]1Cc2cc3cc(OC4CC(OC5CC(O)C(O)C(C)O5)C(O)C(C)O4)c(C)c(O)c3c(O)c2C(=O)[C@H]1OC1CC(OC2CC(OC3CC(C)(O)C(O)C(C)O3)C(O)C(C)O2)C(O)C(C)O1` (stereo partly specified): the T/C runs as follows: (dose: 0.2 mg/kg/injection, schedule: Q01DX028 (sc), vehicle: saline) 100 % of control; (dose: 0.4 mg/kg/injection, schedule: Q01DX028 (sc), vehicle: saline) 97 % of control.
